{
  "source": "patent US10149860B2",
  "about": "“Compositions and methods for treating alzheimer's disease and other tauopathies” (Board of Trustees Of The Leland Stanford Junior University, priority 2013, dated 2018)",
  "key": {"MARK4 [1]": {"test_system": "MARK4", "assay": "Western blot of MARK4 stability in HEK 293T cells transfected with hMARK4-HA", "format": "cell-based, human", "details": "HEK 293T cells with hMARK4-HA; 5 μM WP1130 for 8 h; FIG. 25a", "protocol": "(§1) HEK 293T cells transfected with the hMARK4-HA plasmids were treated with 5 μM WP1130 for 8 h and subsequently used for western blot analysis. Actin serves as loading control. […] Cultured HEK 293T cells were treated with 0, 2, 5 and 10 μM WP1130 for 12 h, and used for western blot analysis. Actin serves as loading control."}, "[2]": {"test_system": "tau phosphorylation at the PAR-1/MARK target site (S262)", "assay": "Western blot of p-Tau (S262) in brain extracts of PS19 tauopathy mice after ICV infusion", "format": "in vivo", "details": "relative to vehicle controls, FIG. 27", "protocol": "(§2) To test the effects of WP1130 in a mammalian model of AD, the drug was administered to Tauopathy mice (PS19) expressing the pathogenic P301S human tau transgene. Mice received intracerebroventricular (ICV) infusion of either WP1130 or vehicle controls and MARK4 and p-Tau levels were assessed by western blot. […] Tauopathy mice (PS19) expressing the pathogenic P301S human tau transgene were treated with vehicle (#1, 2, 4, 6, 12) or WP1130 (#5, 8, 13, 14, 15) by intracerebroventricular (ICV) infusion, and brain extracts were subjected to Western blot analysis with the indicated antibodies. Actin serves as a loading control, and T14 anti-Tau antibody measures levels of total tau. Note the reduction of MARK4 and p-Tau (S262) protein levels by drug treatment."}, "PAR-1": {"test_system": "PAR-1", "assay": "Western blot of PAR-1-Myc levels in third instar larvae body-wall muscle extracts", "format": "in vivo, Drosophila", "details": "Mhc-Gal4>PAR-1 larvae; WP1130 10 μM vs DMSO; FIG. 26b", "protocol": "(§3) For Western blot analysis, the primary antibodies used were: anti-PAR-1 (1:8,000), anti-phospho-PAR-1 (1:1,000); anti-HA (1:2,000, Sigma); anti-Myc (1:1,000, Millipore); anti-GFP (1:2,000, Abcam); anti-Dlg (4F3) (1:1,000, Hybridoma bank, University of Iowa); 12E8 (1:8,000); anti-Actin (1:40,000, Sigma); anti-Gapdh (1:3,000, Abcam).\n(§4) Either WP1130 (Selleck Chemicals) or DMSO (Sigma) was added to fly food at 2, 5 or 10 μM concentrations. Feeding third instar larvae were collected from the drug-containing food and dissected in PBS. Besides Mhc-GAL4>UAS-APP, which were raised at 29° C., all flies were raised at 25° C.\n(§5) To investigate whether WP1130 may act as an inhibitor of FAF to control PAR-1 activity in vivo, Mhc-Gal4>PAR-1 and control Mhc-Gal4/+ animals were fed with fly food containing WP1130 or DMSO alone. […]\n(§6) (a) Quantification of the pharmacological effect of WP1130 on the total number of boutons on muscle 6/7 of A3, after normalization with bouton area. […] (c) Quantification of NMJ bouton number showing rescue by WP1130 (10 μM) of the bouton-loss phenotypes induced by Mhc-Gal4>UAS-htauM or Mhc-Gal4>UAS-htauM+UAS-PAR-1. […] (e) Quantification of NMJ bouton number showing rescue by WP1130 (10 μM) of the bouton-loss phenotypes induced the expression APP/Aβ-42. […]"}, "FAF": {"target": "T1, FAF (Drosophila melanogaster, UniProt P55824)", "T1 construct": "Mhc-Gal4>PAR-1 and control Mhc-Gal4/+ animals were fed with fly food containing WP1130 or DMSO alone; endogenous in cells; host or cells: Drosophila third instar larvae (body-wall muscle / NMJ)", "T1 sequence (P55824 whole entry, the tested form may be a part)": "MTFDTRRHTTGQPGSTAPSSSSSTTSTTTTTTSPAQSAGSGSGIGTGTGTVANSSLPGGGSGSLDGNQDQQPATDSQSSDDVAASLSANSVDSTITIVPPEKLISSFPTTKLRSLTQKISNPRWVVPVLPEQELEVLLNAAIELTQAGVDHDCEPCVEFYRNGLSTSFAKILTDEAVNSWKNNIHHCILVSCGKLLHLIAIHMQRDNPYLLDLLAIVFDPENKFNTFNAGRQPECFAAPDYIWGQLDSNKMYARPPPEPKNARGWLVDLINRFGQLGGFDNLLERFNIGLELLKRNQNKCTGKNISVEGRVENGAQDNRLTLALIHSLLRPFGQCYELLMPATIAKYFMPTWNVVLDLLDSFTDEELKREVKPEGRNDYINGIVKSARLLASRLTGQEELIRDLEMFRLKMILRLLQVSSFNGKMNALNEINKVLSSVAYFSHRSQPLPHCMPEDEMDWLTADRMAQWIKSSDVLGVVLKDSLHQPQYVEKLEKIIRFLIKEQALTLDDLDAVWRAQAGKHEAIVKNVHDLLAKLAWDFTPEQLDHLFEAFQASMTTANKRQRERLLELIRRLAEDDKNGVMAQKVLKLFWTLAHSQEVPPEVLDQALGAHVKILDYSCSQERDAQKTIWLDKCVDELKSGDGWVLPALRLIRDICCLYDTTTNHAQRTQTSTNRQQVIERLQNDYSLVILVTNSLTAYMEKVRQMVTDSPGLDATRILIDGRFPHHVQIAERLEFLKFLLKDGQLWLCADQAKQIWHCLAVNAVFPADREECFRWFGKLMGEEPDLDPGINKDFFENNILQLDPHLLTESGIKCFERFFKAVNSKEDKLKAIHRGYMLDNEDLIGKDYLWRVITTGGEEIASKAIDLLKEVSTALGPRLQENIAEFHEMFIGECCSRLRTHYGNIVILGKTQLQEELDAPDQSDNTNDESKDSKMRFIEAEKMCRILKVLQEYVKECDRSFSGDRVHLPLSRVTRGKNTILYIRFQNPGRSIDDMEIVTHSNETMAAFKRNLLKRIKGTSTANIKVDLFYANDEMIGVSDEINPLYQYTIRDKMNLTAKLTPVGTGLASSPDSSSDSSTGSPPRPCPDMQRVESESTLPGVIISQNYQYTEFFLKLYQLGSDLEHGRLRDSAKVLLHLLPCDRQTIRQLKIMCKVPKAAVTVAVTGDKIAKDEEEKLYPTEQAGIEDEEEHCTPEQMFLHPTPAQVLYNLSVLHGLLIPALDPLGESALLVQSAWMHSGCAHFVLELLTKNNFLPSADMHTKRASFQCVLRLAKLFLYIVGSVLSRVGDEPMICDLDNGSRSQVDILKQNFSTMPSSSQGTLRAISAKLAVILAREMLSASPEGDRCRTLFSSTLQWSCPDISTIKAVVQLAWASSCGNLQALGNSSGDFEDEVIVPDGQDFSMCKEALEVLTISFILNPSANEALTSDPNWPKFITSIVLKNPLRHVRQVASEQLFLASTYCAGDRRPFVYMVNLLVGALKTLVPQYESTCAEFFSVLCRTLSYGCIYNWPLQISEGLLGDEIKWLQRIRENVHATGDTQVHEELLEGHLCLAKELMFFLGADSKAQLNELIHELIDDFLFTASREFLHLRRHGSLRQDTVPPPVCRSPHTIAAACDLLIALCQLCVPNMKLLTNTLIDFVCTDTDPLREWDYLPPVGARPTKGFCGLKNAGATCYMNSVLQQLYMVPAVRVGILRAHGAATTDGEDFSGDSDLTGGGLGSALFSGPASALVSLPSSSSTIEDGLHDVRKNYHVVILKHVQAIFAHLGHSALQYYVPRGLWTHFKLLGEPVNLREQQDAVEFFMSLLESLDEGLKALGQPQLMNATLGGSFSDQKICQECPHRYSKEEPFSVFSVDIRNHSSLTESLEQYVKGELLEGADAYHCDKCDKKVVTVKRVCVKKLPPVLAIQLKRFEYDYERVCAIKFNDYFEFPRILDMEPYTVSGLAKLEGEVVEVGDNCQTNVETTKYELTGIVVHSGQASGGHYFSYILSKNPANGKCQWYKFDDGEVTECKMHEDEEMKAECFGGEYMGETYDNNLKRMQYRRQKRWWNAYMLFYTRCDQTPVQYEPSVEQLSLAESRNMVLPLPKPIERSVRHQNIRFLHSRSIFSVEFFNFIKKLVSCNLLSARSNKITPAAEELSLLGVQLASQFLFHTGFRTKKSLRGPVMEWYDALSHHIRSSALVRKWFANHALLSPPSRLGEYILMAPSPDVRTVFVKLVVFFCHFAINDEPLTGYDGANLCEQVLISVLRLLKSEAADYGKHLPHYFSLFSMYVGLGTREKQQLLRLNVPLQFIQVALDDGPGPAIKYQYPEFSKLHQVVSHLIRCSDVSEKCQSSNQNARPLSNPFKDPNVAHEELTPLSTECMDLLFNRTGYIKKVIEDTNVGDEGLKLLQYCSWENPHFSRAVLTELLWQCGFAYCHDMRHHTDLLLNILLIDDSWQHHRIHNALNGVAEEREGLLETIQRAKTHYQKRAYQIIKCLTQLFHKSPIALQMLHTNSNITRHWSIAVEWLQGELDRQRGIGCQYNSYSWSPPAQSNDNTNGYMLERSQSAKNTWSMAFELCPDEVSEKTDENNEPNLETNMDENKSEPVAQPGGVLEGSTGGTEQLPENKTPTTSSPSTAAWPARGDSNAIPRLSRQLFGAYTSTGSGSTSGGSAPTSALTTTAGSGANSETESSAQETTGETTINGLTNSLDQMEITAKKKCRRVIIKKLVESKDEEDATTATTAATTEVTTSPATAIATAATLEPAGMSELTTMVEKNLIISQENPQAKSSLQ", "assay": "Drosophila larval NMJ bouton number after feeding WP1130 in fly food", "format": "in vivo", "protocol": "For immunohistochemistry, third instar lavae were selected, dissected in PBS, fixed in 4% formaldehyde (Ted Pella) in PBS for about 15 minutes and washed 3× in 0.1% Triton X-100 in PBS. The primary antibodies used were: anti-PAR-1 (1:10,000), anti-phospho-PAR-1 (1:1,000); anti-Slimb (1:1,000); anti-Dlg (4F3) (1:50, Hybridoma bank, University of Iowa); anti-GFP (1:8,000, Abcam); anti-dtau (1:3). Primary antibody incubation was performed at 4° C. overnight. All secondary antibodies (Molecular Probes) and Texas Red or FITC-conjugated anti-HRP (Jackson ImmunoResearch Laboratories) were used at 1:200 and incubated for about 2 hours at room temperature. Laval preparations were mounted in SlowFade Antifade kit (Invitrogen). Confocal images were collected from Leica confocal microscopes SP2 and SP5 equipped with 40× or 100× inverted NX oil lens. Leica Application Suite Advanced Fluorescence software was used to capture, process and analyze images. Analysis of the NMJ was performed essentially as described^51. All crosses for genetic interaction studies in the NMJ were performed at 25° C.\nas §4\nFly eye sizes were measured on multiple samples (n>15) from both control and experimental genotypes using the NIH ImageJ software. Average eye size was presented as a normalized percentage of control eye size. We performed two-tailed unpaired Student's t-test to analyze the significance of differences between two groups. Quantification of NMJ bouton number was performed according to previously described protocols (Lee et al., 2010). NMJ bouton number is normalized by muscle area at muscle 6/7 in abdominal segment A3. The experimental genotypes were normalized relative to the control genotype.\nTo investigate whether WP1130 may act as an inhibitor of FAF to control PAR-1 activity in vivo, Mhc-Gal4>PAR-1 and control Mhc-Gal4/+ animals were fed with fly food containing WP1130 or DMSO alone. […] Given the potent effect of WP1130 in modulating PAR-1 protein level, whether WP1130 would affect the phosphorylation of tau was tested.\n(a) Quantification of the pharmacological effect of WP1130 on the total number of boutons on muscle 6/7 of A3, after normalization with bouton area. Indicated genotype flies were incubated with 0, 2, 5 or 10 μM concentrations of WP1130. (b) Western blot analyses showing the effects of WP1130 (10 μM) on PAR-1-Myc levels in third instar larvae body-wall muscle extracts. Values represent normalized PAR-1-Myc levels. Actin serves as loading control. (c) Quantification of NMJ bouton number showing rescue by WP1130 (10 μM) of the bouton-loss phenotypes induced by Mhc-Gal4>UAS-htauM or Mhc-Gal4>UAS-htauM+UAS-PAR-1. (d) Western blot analysis showing reduced 12E8-positive htauM level by WP1130 (10 μM). Values represent normalized 12E8-positive htauM levels. Actin serves as loading control. (e) Quantification of NMJ bouton number showing rescue by WP1130 (10 μM) of the bouton-loss phenotypes induced the expression APP/Aβ-42. (f) A model depicting possible signaling pathways linking APP/Aβ-42 to synaptic dysfunction and synapse loss seen in AD. Dashed lines indicate potential direct regulations."}, "[3]": {"test_system": "htau phosphorylation at 12E8 sites", "assay": "Western blot of 12E8-positive htauM level in WP1130-fed flies", "format": "in vivo, Drosophila", "details": "WP1130 10 μM vs DMSO; FIG. 26d", "protocol": "as §3, §4, §5, §6"}, "MARK4 [4]": {"test_system": "MARK4", "assay": "Western blot of MARK4 in brain extracts of PS19 tauopathy mice after ICV infusion", "format": "in vivo", "details": "relative to vehicle controls, FIG. 27", "protocol": "as §2"}, "[5]": {"test_system": "endogenous tau phosphorylation at the MARK sites", "assay": "Western blot of endogenous tau phosphorylation (12E8 antibody) in HEK 293T cells", "format": "cell-based, human", "details": "0, 2, 5 and 10 μM WP1130 for 12 h, FIG. 25b", "protocol": "as §1"}, "PS19 mice": {"test_system": "PS19 mice", "assay": "Passive avoidance test in PS19 tauopathy mice", "format": "in vivo", "details": "WP1130-treated PS19 mice vs wt and vehicle treated PS19 mice; FIG. 28", "protocol": "The passive avoidance test was used to test whether WP1130 could rescue the learning and memory deficits expressed in the PS19 mice. During training, the animals were subjected to electric shock on the foot in the dark chamber. During testing, the trained animals were placed in the light chamber and the time it took the animals to enter the dark chamber (latency time) was recorded. […] (Top) A diagram showing the passive-avoidance test, in which animals were allow to freely moving between the light and dark chambers during habituation. During training, the animals were subjected to electric shock on the foot in the dark chamber. During testing, the trained animals were placed in the light chamber and the time it took the animals to enter the dark chamber (latency time) was recorded. (Bottom) Statistical analysis of the latency times of vehicle-treated WT control, vehicle-treated PS19 tauopathy mice, and drug-treated PS19 tauopathy during the habituation, training, and testing periods. ** indicates P<0.01 in Student's t-test."}},
  "data": [
    {"smiles": "CCC[C@H](NC(=O)/C(C#N)=C/c1cccc(Br)n1)c1ccccc1", "note": "[WP1130, (S,E)-3-(6-bromopyridin-2-yl)-2-cyano-N-(1-phenylbutyl)acrylamide]", "values": [
      {"measurement": "stability of MARK4", "setting": "MARK4 [1]", "result": "decreases the stability of MARK4"},
      {"measurement": "phosphorylated tau level", "setting": "[2]", "result": "significantly reduced"},
      {"measurement": "PAR-1 protein level", "setting": "PAR-1", "result": "reducing PAR-1 protein level"},
      {"measurement": "loss of NMJ bouton number caused by overexpression of PAR-1", "setting": "FAF; Mhc-Gal4>PAR-1 larvae, WP1130 in fly food at 0, 2, 5 or 10 μM vs DMSO, FIG. 26a", "result": "highly effective in preventing the loss of NMJ bouton number"},
      {"measurement": "bouton-loss phenotype caused by the co-expression of PAR-1 and htauM", "setting": "FAF; Mhc-Gal4>UAS-htauM+UAS-PAR-1, WP1130 10 μM vs DMSO, FIG. 26c", "result": "partially suppressed"},
      {"measurement": "bouton-loss phenotype caused by the postsynaptic toxicity of APP/Aβ-42", "setting": "FAF; WP1130 10 μM, FIG. 26e", "result": "effectively suppressed"},
      {"measurement": "synaptic-loss phenotype caused by postsynaptic co-expression of FAF and Slimb-ΔF", "setting": "FAF; WP1130 in fly food vs DMSO, FIG. 26a", "result": "blocked synaptic-loss phenotype"},
      {"measurement": "bouton-loss phenotype induced by Mhc-Gal4>UAS-htauM", "setting": "FAF; htauM alone, WP1130 10 μM, FIG. 26c", "result": "rescue"},
      {"measurement": "htau phosphorylation at 12E8 sites", "setting": "[3]", "result": "dramatically decreased"},
      {"measurement": "MARK4 level", "setting": "MARK4 [4]", "result": "significantly reduced"},
      {"measurement": "endogenous tau phosphorylation at the MARK sites (12E8 antibody)", "setting": "[5]", "result": "decreased endogenous tau phosphorylation"},
      {"measurement": "latency time to enter the dark chamber", "setting": "PS19 mice", "result": "latency times comparable to that of wt"}
    ]}
  ]
}
